# According to PMC6934184, “Selective DNA-PKcs inhibition extends the therapeutic index of localized radiotherapy and chemotherapy” (The Journal of Clinical Investigation, 2019):
# Biological target: T1, MAP2K1 (MEK1) S218D S222D (Homo sapiens, UniProt Q02750, S218D/S222D)
# T1 construct: purchased Thermo Fisher Scientific (Life Technologies) SelectScreen
# Experiment: SelectScreen LanthaScreen
# Assay type: binding
# Conditions: read-out: % displacement
# Procedure, shortened: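 SelectScreen broad panel; activity (Z'LYTE, Adapta) plus binding formats. ATP: Km app for CSF1R Z'LYTE; 10 for CAMK1 Adapta. Readout = % per kinase.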
# T1 sequence (Q02750 whole entry S218D/S222D): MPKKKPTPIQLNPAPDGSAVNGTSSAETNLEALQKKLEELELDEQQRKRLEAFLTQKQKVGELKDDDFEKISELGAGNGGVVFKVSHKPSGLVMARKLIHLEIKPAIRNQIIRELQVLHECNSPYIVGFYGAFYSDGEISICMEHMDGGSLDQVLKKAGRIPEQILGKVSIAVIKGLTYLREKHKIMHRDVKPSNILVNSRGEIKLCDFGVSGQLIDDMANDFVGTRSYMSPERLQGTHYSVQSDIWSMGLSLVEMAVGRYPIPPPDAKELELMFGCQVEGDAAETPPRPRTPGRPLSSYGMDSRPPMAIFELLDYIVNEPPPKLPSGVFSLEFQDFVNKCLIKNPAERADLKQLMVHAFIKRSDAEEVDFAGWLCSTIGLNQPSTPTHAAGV
smiles,measurement,value
CN(C(=O)CN1CCOCC1)c1ccc2sc3c(-c4cccc5c(=O)cc(N6CC7CCC(C6)O7)oc45)cccc3c2c1 [NU5455],inhibition at 1 µM,-0.1%
